Where two headings read alike, the source gives them in different places.
What was measured:
[1] = biological target: T1, TNKS2 (Homo sapiens, UniProt Q9H2K2); assay: biochemical; details: read-out: TNKS2 IC50; NAD+ consumption assay; > less than 50% inhibition at highest concentration, >> no inhibition
T1 sequence (Q9H2K2 1-1166): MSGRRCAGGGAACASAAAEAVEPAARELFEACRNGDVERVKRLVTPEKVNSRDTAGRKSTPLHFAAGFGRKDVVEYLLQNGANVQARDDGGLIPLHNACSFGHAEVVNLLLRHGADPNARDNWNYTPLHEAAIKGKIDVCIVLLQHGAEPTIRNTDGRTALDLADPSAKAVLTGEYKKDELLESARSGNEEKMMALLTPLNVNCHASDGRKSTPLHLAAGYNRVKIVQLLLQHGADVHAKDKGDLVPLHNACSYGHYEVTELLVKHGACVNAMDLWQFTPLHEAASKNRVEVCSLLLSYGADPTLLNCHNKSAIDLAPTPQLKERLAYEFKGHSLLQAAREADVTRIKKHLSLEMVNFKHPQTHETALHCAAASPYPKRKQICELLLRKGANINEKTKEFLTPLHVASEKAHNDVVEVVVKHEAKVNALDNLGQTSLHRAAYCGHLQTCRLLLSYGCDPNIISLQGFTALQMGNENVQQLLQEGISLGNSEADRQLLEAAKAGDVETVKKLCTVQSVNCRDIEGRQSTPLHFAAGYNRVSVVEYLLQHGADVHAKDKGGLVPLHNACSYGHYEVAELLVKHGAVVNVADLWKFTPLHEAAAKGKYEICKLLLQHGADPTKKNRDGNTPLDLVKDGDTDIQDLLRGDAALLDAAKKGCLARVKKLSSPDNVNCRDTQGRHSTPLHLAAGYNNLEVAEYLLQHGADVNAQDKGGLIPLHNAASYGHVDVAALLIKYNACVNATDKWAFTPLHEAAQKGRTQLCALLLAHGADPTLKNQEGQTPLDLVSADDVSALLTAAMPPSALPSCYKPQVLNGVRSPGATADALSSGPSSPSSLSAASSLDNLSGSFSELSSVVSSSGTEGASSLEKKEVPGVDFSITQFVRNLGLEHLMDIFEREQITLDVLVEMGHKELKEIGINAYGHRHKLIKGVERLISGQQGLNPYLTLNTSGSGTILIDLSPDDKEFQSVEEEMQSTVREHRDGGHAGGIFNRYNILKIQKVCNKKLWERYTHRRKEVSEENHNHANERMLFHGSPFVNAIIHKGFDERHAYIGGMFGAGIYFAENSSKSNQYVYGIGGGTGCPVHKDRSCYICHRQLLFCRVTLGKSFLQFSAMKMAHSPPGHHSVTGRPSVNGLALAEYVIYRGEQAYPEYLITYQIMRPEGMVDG
Method: (§1) All starting materials, reagents, and solvents were purchased from common commercial suppliers and were used as such without further purification. […] Organic solutions were dried over anhydrous Na2SO4 and concentrated with rotary evaporator at low pressure. All the reactions were routinely checked by thin-layer chromatography (TLC) on silica gel 60F254 (Merck) and visualized by using UV and iodine. Flash chromatography separations were carried out on Merck silica gel 60 (mesh 230-400) or by using automated Buchi Reveleris X2-UV with column FP Ecoflex Si 12 g. Yields were of purified products and were not optimized. ^1HNMR spectra were recorded at 400 MHz (Bruker Avance DRX-400), while ^13CNMR spectra were recorded at 101 MHz (Bruker Avance DRX-400). Chemical shifts are given in ppm (δ) relative to TMS. […] Mating constant (J) are reported in Hz. The purity of the tested compounds was evaluated by HPLC analysis using Jasco LC-4000 instrument equipped with a UV-Visible Diode Array Jasco-MD4015 (Jasco Corporation, Tokyo, Japan), and XTerra MS C18 column, 5 μm×4.6 mm×150 mm (Waters Corporation, Massachusetts, USA). Chromatograms were analyzed by ChromNAV2.0 Chromatography Data System software. […] The peak retention time (ret. time) is given in minutes. […] 1-Isobutoxy-4-methoxy-2-nitrobenzene (113). Isobutyl alcohol (0.6 mL, 6.43 mmol) was added, under nitrogen atmosphere at 0° C., to a suspension of NaH (0.26 g, 6.43 mmol) in dry DMF. After 15 minutes, 1-fluoro-4-methoxy-2-nitrobenzene 112 (1 g, 5.84 mmol) was also added and the reaction mixture was stirred at 80° C. for 4 h. […] (2-Isobutoxy-5-methoxyphenyl)amine (114). Zn (1.57 g, 24 mmol) and NH4C1 (2.45 g, 40 mmol) were added to a solution of 113 (0.46 g, 2 mmol) in acetone/H2O (50 mL, ratio 5:1). The reaction mixture was stirred at 60° C. for 3 h and, then, it was filtered over celite. […] N-(2,5-diethoxyphenyl)thiourea (55). […] N-(2-isobutoxy-5-methoxyphenyl)thiourea (115). […] A solution of Br2 (0.2 mL, 3.3 mmol) in CHCl3 (5 mL) was slowly added to a suspension of 45 (0.6 g, 3.3 mmol) in CHCl3 (13 mL), at 0° C. The reaction mixture was stirred at r.t. for 4 h and, then, a 10% solution of Na2SO3 in water was added to the mixture. […] 4,7-Diethoxy-1,3-benzothiazol-2-amine (66). […] 4-Isobutoxy-7-methoxy-1,3-benzothiazol-2-amine (116). […] Hydrazine hydrate (0.23 mL, 4.77 mmol) and CH3COOH (0.12 mL, 2.1 mmol) were added to a suspension of 56 (0.29 g, 1.59 mmol) in ethylene glycol (8 mL), and the reaction mixture was stirred for 24 h at 125° C. […] 6-Ethyl-2-hydrazino-1,3-benzothiazole (69). […] 6-Ispropyl-2-hydrazino-1,3-benzothiazole (70). […] 2-Hydrazino-4,7-dimethoxy-1,3-benzothiazole (73). […] 2-Hydrazino-5,7-dimethoxy-1,3-benzothiazole (75). […] 2-Hydrazino-4,7-Diethoxy-1,3-benzothiazole (77). […] 2-Hydrazino-5-methyl[1,3]thiazolo[5,4-b]pyridine (100). […] A solution of 67 (0.13 g, 0.65 mmol) in formic acid (5 mL) was refluxed for 10 h. The reaction mixture was then poured into ice/water and the pH was neutralized using a saturated solution of NaHCO3.

[2] = Toxicity using the WST-1 assay
[3] = biological target: T2, PARP2 (Homo sapiens, UniProt Q9UGN5); assay: biochemical; type: biochemical; details: NAD+ consumption assay; > less than 50% inhibition at highest concentration, >> no inhibition
T2 construct: made in house
T2 sequence (Q9UGN5 whole entry): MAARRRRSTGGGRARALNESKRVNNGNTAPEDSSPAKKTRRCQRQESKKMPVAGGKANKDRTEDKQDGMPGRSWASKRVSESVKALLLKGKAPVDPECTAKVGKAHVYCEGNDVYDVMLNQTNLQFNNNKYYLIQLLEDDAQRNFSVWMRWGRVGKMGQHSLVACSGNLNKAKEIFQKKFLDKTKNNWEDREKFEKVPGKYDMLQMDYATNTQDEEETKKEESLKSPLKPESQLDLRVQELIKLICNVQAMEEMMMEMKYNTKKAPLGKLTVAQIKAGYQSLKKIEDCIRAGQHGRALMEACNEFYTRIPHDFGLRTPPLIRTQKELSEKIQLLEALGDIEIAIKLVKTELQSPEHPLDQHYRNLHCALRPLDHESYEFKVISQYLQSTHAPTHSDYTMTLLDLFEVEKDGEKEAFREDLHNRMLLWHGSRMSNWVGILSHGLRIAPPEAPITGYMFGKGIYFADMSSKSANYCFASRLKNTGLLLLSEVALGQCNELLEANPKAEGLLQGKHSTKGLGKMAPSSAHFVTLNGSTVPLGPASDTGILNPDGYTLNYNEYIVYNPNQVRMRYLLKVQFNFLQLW
Method: as §1

[4] = biological target: T3, PARP15 (Homo sapiens, UniProt Q460N3); assay: biochemical
T3 sequence (Q460N3 1-678): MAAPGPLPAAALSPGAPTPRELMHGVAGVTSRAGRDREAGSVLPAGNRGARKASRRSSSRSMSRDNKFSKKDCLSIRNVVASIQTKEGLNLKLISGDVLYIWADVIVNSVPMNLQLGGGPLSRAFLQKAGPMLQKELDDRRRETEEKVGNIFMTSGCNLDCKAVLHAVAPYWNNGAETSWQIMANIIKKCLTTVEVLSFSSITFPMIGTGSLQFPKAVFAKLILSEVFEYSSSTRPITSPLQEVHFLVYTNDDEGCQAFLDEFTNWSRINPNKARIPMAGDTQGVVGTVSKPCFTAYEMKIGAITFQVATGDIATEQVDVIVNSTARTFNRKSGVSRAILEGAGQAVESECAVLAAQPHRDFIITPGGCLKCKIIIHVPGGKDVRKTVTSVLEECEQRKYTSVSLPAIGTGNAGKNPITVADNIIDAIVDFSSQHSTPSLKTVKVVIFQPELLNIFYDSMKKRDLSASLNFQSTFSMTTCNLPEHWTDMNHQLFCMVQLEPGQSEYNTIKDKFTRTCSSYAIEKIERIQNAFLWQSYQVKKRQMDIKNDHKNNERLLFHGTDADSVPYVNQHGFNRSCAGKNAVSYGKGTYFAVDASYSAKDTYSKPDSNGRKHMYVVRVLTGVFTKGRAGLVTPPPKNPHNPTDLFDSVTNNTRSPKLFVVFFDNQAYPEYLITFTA
Method: as §1

[5] = biological target: T4, PARP10 (Homo sapiens, UniProt Q53GL7); assay: Activity assay measuring NAD+ consumption, PARP10 (Tables 1-3); type: biochemical
T4 construct: made in house
T4 sequence (Q53GL7 1-1025): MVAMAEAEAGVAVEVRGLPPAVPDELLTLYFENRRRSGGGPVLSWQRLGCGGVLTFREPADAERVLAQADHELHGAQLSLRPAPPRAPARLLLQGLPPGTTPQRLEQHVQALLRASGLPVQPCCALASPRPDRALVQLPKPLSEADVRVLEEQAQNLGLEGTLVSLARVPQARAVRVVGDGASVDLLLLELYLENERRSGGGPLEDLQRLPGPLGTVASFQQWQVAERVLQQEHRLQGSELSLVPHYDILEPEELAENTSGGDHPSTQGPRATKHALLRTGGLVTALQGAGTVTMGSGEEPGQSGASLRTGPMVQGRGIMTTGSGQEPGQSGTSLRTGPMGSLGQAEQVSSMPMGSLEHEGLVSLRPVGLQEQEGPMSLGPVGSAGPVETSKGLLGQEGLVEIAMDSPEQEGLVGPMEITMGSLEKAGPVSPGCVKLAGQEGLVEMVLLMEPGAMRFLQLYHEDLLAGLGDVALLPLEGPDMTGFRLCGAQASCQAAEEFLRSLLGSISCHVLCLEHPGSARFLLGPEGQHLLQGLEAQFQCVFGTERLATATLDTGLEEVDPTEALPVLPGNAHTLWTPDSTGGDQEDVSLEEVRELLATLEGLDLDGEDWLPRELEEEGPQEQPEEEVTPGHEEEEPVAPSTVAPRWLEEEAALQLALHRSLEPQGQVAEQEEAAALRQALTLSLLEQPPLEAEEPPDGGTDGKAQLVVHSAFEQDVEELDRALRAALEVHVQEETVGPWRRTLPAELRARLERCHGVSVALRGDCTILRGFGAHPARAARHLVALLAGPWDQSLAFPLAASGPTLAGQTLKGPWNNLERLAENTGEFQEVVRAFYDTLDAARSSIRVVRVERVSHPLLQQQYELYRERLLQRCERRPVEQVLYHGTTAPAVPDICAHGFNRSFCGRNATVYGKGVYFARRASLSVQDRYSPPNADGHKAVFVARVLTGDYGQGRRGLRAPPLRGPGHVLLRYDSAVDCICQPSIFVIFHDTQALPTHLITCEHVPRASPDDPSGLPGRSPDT

[6] = read-out: PARP15 IC50, Tables 1-3 assay, > less than 50% inhibition, >> no inhibition at reported concentration, * value limited by protein concentration
[7] = Tables 1-3 assay, > less than 50% inhibition, >> no inhibition at reported concentration, * value limited by protein concentration, read-out: PARP10 IC50
[8] = PARP10 IC50, Tables 1-3 assay, > less than 50% inhibition, >> no inhibition at reported concentration, * value limited by protein concentration
[9] = PARP10 pIC50 ± SEM, Tables 1-3 assay

SMILES: Oc1ccc(O)c2c1sc1nncn12 [Compound 17, [1,2,4]Triazolo[3,4-b][1,3]benzothiazol-5,8-diol]
- IC50 [1]: 3100 nM
- toxicity (WST-1 assay) [2]: dose dependent toxicity
- IC50 [3]: 240 nM

SMILES: COc1ccc(OC)c2c1SC1=NNC(SC)N12 (stereo not drawn) [Compound 27, 5,8-Dimethoxy-3-(methylthio)-2,3-dihydro[1,2,4]triazolo[3,4-b][1,3]benzothiazole]
- IC50 [4, 6]: > 10000 nM
- IC50 [5, 7]: > 10000 nM

SMILES: COc1ccc(OC)c2c1SC1=NNC(NC(=O)c3ccc(Cl)cc3)N12 (stereo not drawn) [Compound 29, 4-Chloro-N-(5,8-dimethoxy-2,3-dihydro[1,2,4]triazolo[3,4-b][1,3]benzothiazol-3-yl)benzamide]
- IC50 [4, 6]: 7900 nM
- IC50 [5, 7]: > 10000 nM

SMILES: c1cnc2sc3nncn3c2c1 [Compound 101, [1,2,4]Triazolo[3′,4′:2,3][1,3]thiazolo[5,4-b]pyridine]
- inhibition of PARP10 (in words) [5]: only weak inhibition
- IC50 [5, 8]: 30000 nM

SMILES: CCOc1ccc(OCC)c2c1sc1nncn12 [Compound 102, 5,8-Diethoxy[1,2,4]triazolo[3,4-b][1,3]benzothiazole]
- inhibition of PARP10 (in words) [5]: potent PARP10 inhibitors
- IC50 ([5]; PARP10 IC50, Tables 1-3 assay): 610 nM

SMILES: CCOc1ccc(OCC)c2c1sc1nnc(N)n12 [Compound 103, 5,8-Diethoxy[1,2,4]triazolo[3,4-b][1,3]benzothiazol-3-amine]
- inhibition of PARP10 (in words) [5]: potent PARP10 inhibitors
- IC50 ([5]; PARP10 IC50, Tables 1-3 assay): 72 nM

SMILES: COc1cc2sc3nnc(N)n3c2cc1OC [Compound 104, 6,7-Dimethoxy[1,2,4]triazolo[3,4-b][1,3]benzothiazol-3-amine]
- IC50 ([4]; PARP15 IC50, Tables 1-3 assay): 170 nM
- IC50 ([5]; PARP10 IC50, Tables 1-3 assay): 110 nM
- IC50 [5, 9]: 107 nM

SMILES: CC(=O)Nc1nnc2sc3cc(C)ccc3n12 [Compound 107, N-(7-methyl[1,2,4]triazolo[3,4-b][1,3]benzothiazol-3-yl)acetamide]
- IC50 ([4]; PARP15 IC50, Tables 1-3 assay, > less than 50% inhibition, >> no inhibition at reported concentration, * value limited by protein concentration): 5200 nM
- IC50 [5, 8]: 2600 nM

SMILES: Nc1nnc2sc3cc(Br)ccc3n12 [Compound 108, 7-Bromo[1,2,4]triazolo[3,4-b][1,3]benzothiazol-3-amine]
- IC50 ([4]; PARP15 IC50, Tables 1-3 assay): 150 nM
- IC50 ([4]; PARP15 pIC50 ± SEM, Tables 1-3 assay): 145 nM
- IC50 ([5]; PARP10 IC50, Tables 1-3 assay): 60 nM

SMILES: COc1ccc(OCC(C)C)c2c1sc1nnc(N)n12 [Compound 110, 5-Isobutoxy-8-methoxy[1,2,4]triazolo[3,4-b][1,3]benzothiazol-3-amine]
- IC50 [4]: 180 nM
- IC50 ([5]; PARP10 IC50, Tables 1-3 assay): 80 nM
- IC50 [5, 9]: 81.3 nM

Reference: patent US20250177359A1, “COMPOUNDS FOR USE IN THE TREATMENT OF CANCER AND INFLAMMATORY CONDITIONS” (priority 2022, published 2025)
